Where two headings read alike, the source gives them in different places. Values belong to the compound of their own block, whether it stands above or below them.
How the values were obtained:
[1] = Effects of compounds on body weight of mice in the LLC tumor test; conditions: LLC tumor-bearing mice
[2] = system: LLC tumors; assay: In vivo antitumor activity test, LLC tumors in mice; parameters: Tumor inhibition rate: concentration or dose not given beside the values; conditions: LLC tumors in C57BL6 mice, once per day, 21 days; for Tumor weight: CTX intraperitoneal 150 mg·kg^−1, compounds intragastric; for Tumor inhibition rate: from average tumor weight vs model group
[3] = system: DC-stimulated T cell proliferation; assay: DC-stimulated T cell proliferation assay (MLR); assay type: cell-based, human; conditions: MTT, A570 nm, 72 hours
Description: The human peripheral blood leukocyte layer was taken and diluted with same volume of 0.01 mol/L PBS. PBMC was routinely isolated with a lymphocyte separation medium, and the cell concentration was adjusted to 3×10^6 ml^−1 in a complete RPMI1640 medium; the cells were added to a 6-well plate, 3 ml per well, and cultured in a 5% CO2, 37° C. incubator for 2 hours, washed with PBS for 3 times to remove non-adherent cells, then added with a culture medium containing IL-4 (100 U/ml), GM-CSF (150 ng/ml) and TNF-α (500 U/ml), and then routinely cultured, the medium was changed for half every other day. After 8 days of culture, the cells were used for identification and experiment.
The human PBMC layer was separated by the method in the step 1. The macrophages were removed by the adherence method, the B cells were removed by the nylon wool fiber syringe method, and the obtained T cells were adjusted to a cell concentration of 1×10^6 cells/ml.
The mature DCs with a purity of 99% were centrifuged, added with RPMI1640 to adjust the cell concentration to 1×10^5, 4×10^4, 2×10^4/ml, and added to a 96-well plate, two wells for each concentration, 100 μl/well.
T cells were added to DCs of each of the above drug-added groups, 100 μl/well, cultured in a 5% CO2, 37° C. incubator for 72 hours; for each well, 100 μl of the culture solution was gently sucked out 6 hours before the end of the culture, and 10 μl of MTT (5 mg/ml) was added, further cultured in incubator for 6 hours, then 100 μl of 0.01 mol/L HCl-10% SDS was added, stood at 37° C. overnight, and the absorbance value (A570 nm) was determined by a microplate to show the T cell proliferation level.

[4] = target: T1, human indoleamine 2,3-dioxygenase (Homo sapiens, UniProt P14902); assay: Determination of the activity for inhibiting indoleamine 2,3-dioxygenase and IC50; assay type: biochemical; conditions: purified human IDO, 200 μM L-tryptophan, 37° C., 60 minutes, pH 6.5
T1 construct: made in house; host or cells: E. coli

[5] = system: mice with Alzheimer (AD model); assay: Morris water maze detection of behavioral changes in mice with Alzheimer; assay type: in vivo; conditions: for Number of stays / Time of stay: spatial probe test, sixth day
Description: Mouse behavioral analysis was performed using a Morris water maze (Ethovision XT monitoring and analysis software, Morris water maze system, from Noldus, Netherlands). The water maze test process was divided into two parts, hidden platform acquisition test for consecutive 5 days, and spatial probe test on the sixth day, the mice were administered according to the test groups and the design doses before each test. The mice were trained 4 times a day, each time the mice were dived in different areas, the water maze was divided into areas 1, 2, 3 and 4 according to the south, east, north and west, and the platform was the 5th area located in the 4th area. […] The hidden platform acquisition test was used to detect the learning ability of mice, while the spatial probe test was used to detect the spatial memory ability of mice.
Using the statistical analysis software SPSS16.0, the escape latent period of the hidden platform acquisition test was analyzed by variance of multiple measures; and the swimming time in each quadrant and the number of crossing target in the spatial probe test were analyzed by one-way analysis of variance. The data were expressed as mean±standard deviation, and the significant level of difference was set as bilateral P=0.05.

[6] = mouse, in vivo

T1 sequence (P14902 whole entry): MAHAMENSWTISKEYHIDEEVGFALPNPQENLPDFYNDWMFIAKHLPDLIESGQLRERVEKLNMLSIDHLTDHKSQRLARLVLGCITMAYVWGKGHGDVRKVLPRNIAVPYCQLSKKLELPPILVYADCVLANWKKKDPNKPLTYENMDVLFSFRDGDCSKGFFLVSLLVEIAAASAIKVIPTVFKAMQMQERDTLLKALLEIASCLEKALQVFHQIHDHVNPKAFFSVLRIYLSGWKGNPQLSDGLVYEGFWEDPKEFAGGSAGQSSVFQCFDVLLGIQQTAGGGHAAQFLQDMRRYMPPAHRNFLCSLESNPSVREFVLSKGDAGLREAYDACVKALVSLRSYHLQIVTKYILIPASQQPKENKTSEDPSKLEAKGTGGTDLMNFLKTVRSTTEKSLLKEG

SMILES: O=P1(N(CCCl)CCCl)NCCCO1 (stereo not shown) [CTX, cyclophosphamide, reference compound]
Average body weight after test ([1]; after test (21 days of administration)): 19 ± 3.3 g
Average body weight before test ([1]; before test): 22 ± 3.1 g
Tumor weight [2]: 0.701 ± 0.314 g
Tumor inhibition rate [2]: 53.7%

IC50 [4]: 37 nM
SMILES: N=C(N)NCCNc1nonc1/C(=N/O)Nc1ccc(F)c(Br)c1 [Example 3047]
T:DC (absorbance value) ([3]; T:DC 10:1): 0.864 ± 0.006^##※
T:DC (absorbance value) ([3]; T:DC 25:1): 0.834 ± 0.004^##※
T:DC (absorbance value) ([3]; T:DC 50:1): 0.825 ± 0.007^##※
Tumor weight [2]: 0.370 ± 0.209^##※ g
Tumor inhibition rate [2]: 75.6%
Latent period for searching platform in hidden platform test ([5]; 1st Day): 52.3 ± 5.2 s
Latent period for searching platform in hidden platform test ([5]; 2nd Day): 44.0 ± 4.4 s
Latent period for searching platform in hidden platform test ([5]; 3th Day): 22.1 ± 4.5^##※ s
Number of stays ([5]; 4th Area): 13.0 ± 1.5^##※ times
Time of stay ([5]; 4th Area): 25.9 ± 5.2^##※ s
Latent period for searching platform in hidden platform test ([5]; 4th Day): 10.5 ± 5.7^##※ s
Number of stays ([5]; 5th Area (platform)): 3.8 ± 0.6^##※ times
Time of stay ([5]; 5th Area (platform)): 5.9 ± 0.7^##※ s
Latent period for searching platform in hidden platform test ([5]; 5th Day): 5.4 ± 6.0^##※※ s
Average body weight before test [6]: 22 ± 3.4 g

IC50 [4]: 20 nM
SMILES: N=C(N)NCCCNc1nonc1/C(=N/O)Nc1ccc(F)c(Br)c1 [Example 3048]

IC50 [4]: 22 nM
SMILES: CNC(=N)NCCNc1nonc1/C(=N/O)Nc1ccc(F)c(Br)c1 [Example 3049]

IC50 [4]: 23 nM
SMILES: CC(C)(C)OC(=O)N=C(NCCNc1nonc1/C(=N/O)Nc1ccc(F)c(Br)c1)NC(=O)OC(C)(C)C [Example 3051]

IC50 [4]: 16 nM
SMILES: CC(C)(C)OC(=O)N=C(N)NCCCNc1nonc1/C(=N/O)Nc1ccc(F)c(Br)c1 [Example 3053]

SMILES: NS(=O)(=O)NCCNc1nonc1C(=Nc1ccc(F)c(Br)c1)NO [INCB024360, reference compound]
T:DC (absorbance value) ([3]; T:DC 10:1): 0.830 ± 0.002
T:DC (absorbance value) ([3]; T:DC 25:1): 0.804 ± 0.004
T:DC (absorbance value) ([3]; T:DC 50:1): 0.799 ± 0.003
Tumor weight [2]: 0.653 ± 0.178 g
Tumor inhibition rate [2]: 56.9%
Latent period for searching platform in hidden platform test ([5]; 1st Day): 53.2 ± 2.3 s
Latent period for searching platform in hidden platform test ([5]; 2nd Day): 51.4 ± 4.8 s
Latent period for searching platform in hidden platform test ([5]; 3th Day): 38.6 ± 5.5 s
Number of stays ([5]; 4th Area): 8.4 ± 1.0 times
Time of stay ([5]; 4th Area): 16.2 ± 2.4 s
Latent period for searching platform in hidden platform test ([5]; 4th Day): 28.7 ± 3.9 s
Number of stays ([5]; 5th Area (platform)): 2.1 ± 0.4 times
Time of stay ([5]; 5th Area (platform)): 3.9 ± 0.7 s
Latent period for searching platform in hidden platform test ([5]; 5th Day): 19.9 ± 6.7 s

IC50 [4]: 343 nM
SMILES: CCC(=O)NC(=N)NCCNc1nonc1/C(=N/O)Nc1ccc(F)c(Br)c1 [XSD3-052]

IC50 [4]: 57 nM
SMILES: N=C(NCCNc1nonc1/C(=N/O)Nc1ccc(F)c(Br)c1)NS(=O)(=O)c1ccccc1 [XSD3-058]
T:DC (absorbance value) ([3]; T:DC 10:1): 0.880 ± 0.003
T:DC (absorbance value) ([3]; T:DC 25:1): 0.849 ± 0.002
T:DC (absorbance value) ([3]; T:DC 50:1): 0.831 ± 0.002
Tumor weight [2]: 0.400 ± 0.112 g
Tumor inhibition rate [2]: 72.3%
Latent period for searching platform in hidden platform test ([5]; 1st Day): 45.3 ± 3.7 s
Latent period for searching platform in hidden platform test ([5]; 2nd Day): 41.3 ± 3.2 s
Latent period for searching platform in hidden platform test ([5]; 3th Day): 25.4 ± 4.6 s
Number of stays ([5]; 4th Area): 13.3 ± 1.8 times
Time of stay ([5]; 4th Area): 25.2 ± 4.2 s
Latent period for searching platform in hidden platform test ([5]; 4th Day): 15.5 ± 4.9 s
Number of stays ([5]; 5th Area (platform)): 3.5 ± 0.9 times
Time of stay ([5]; 5th Area (platform)): 5.9 ± 0.6 s
Latent period for searching platform in hidden platform test ([5]; 5th Day): 7.3 ± 6.1 s
body weight compared with the model group [6]: no significant difference in body weight

IC50 [4]: 118 nM
SMILES: N/C(=N\C(=O)C1CC1)NCCNc1nonc1/C(=N/O)Nc1ccc(F)c(Br)c1 [XSD3-065]

IC50 [4]: 132 nM
SMILES: N/C(=N\C(=O)C1CCC1)NCCNc1nonc1/C(=N/O)Nc1ccc(F)c(Br)c1 [XSD3-066]

IC50 [4]: 142 nM
SMILES: N/C(=N\C(=O)C1CCCC1)NCCNc1nonc1/C(=N/O)Nc1ccc(F)c(Br)c1 [XSD3-067]

IC50 [4]: 539 nM
SMILES: N/C(=N\C(=O)C1CCCCC1)NCCNc1nonc1/C(=N/O)Nc1ccc(F)c(Br)c1 [XSD3-068]

IC50 [4]: 345 nM
SMILES: N/C(=N\C(=O)CC1CC1)NCCNc1nonc1/C(=N/O)Nc1ccc(F)c(Br)c1 [XSD3-069]

IC50 [4]: 345 nM
SMILES: N/C(=N/C(=O)CC1CCC1)NCCNc1nonc1/C(=N/O)Nc1ccc(F)c(Br)c1 [XSD3-070]

IC50 [4]: 502 nM
SMILES: N/C(=N\C(=O)CC1CCCCC1)NCCNc1nonc1/C(=N/O)Nc1ccc(F)c(Br)c1 [XSD3-072]

IC50 [4]: 63 nM
SMILES: N/C(=N\S(=O)(=O)c1ccccc1)NCCCNc1nonc1/C(=N/O)Nc1ccc(F)c(Br)c1 [XSD3-074]

IC50 [4]: 145 nM
SMILES: N/C(=N\C(=O)C1CCCCC1)NCCCNc1nonc1/C(=N/O)Nc1ccc(F)c(Br)c1 [XSD3-078]

IC50 [4]: 95 nM
SMILES: N/C(=N\C(=O)C1CCC1)NCCCNc1nonc1/C(=N/O)Nc1ccc(F)c(Br)c1 [XSD3-079]
T:DC (absorbance value) ([3]; T:DC 10:1): 0.876 ± 0.004
T:DC (absorbance value) ([3]; T:DC 25:1): 0.850 ± 0.003
T:DC (absorbance value) ([3]; T:DC 50:1): 0.837 ± 0.004
Tumor weight [2]: 0.384 ± 0.092 g
Tumor inhibition rate [2]: 73.4%
Latent period for searching platform in hidden platform test ([5]; 1st Day): 40.5 ± 5.5 s
Latent period for searching platform in hidden platform test ([5]; 2nd Day): 39.3 ± 44 s
Latent period for searching platform in hidden platform test ([5]; 3th Day): 20.3 ± 4.2 s
Number of stays ([5]; 4th Area): 14.4 ± 1.3 times
Time of stay ([5]; 4th Area): 26.7 ± 3.3 s
Latent period for searching platform in hidden platform test ([5]; 4th Day): 17.7 ± 5.2 s
Number of stays ([5]; 5th Area (platform)): 3.9 ± 0.5 times
Time of stay ([5]; 5th Area (platform)): 5.8 ± 0.7 s
Latent period for searching platform in hidden platform test ([5]; 5th Day): 9.9 ± 5.2 s
body weight compared with the model group [6]: no significant difference in body weight

IC50 [4]: 87 nM
SMILES: N/C(=N\C(=O)C1CCCC1)NCCCNc1nonc1/C(=N/O)Nc1ccc(F)c(Br)c1 [XSD3-080]

IC50 [4]: 89 nM
SMILES: N/C(=N\C(=O)CC1CC1)NCCCNc1nonc1/C(=N/O)Nc1ccc(F)c(Br)c1 [XSD3-081]

IC50 [4]: 101 nM
SMILES: N/C(=N\C(=O)CC1CCC1)NCCCNc1nonc1/C(=N/O)Nc1ccc(F)c(Br)c1 [XSD3-082]

IC50 [4]: 160 nM
SMILES: N/C(=N\C(=O)CC1CCCCC1)NCCCNc1nonc1/C(=N/O)Nc1ccc(F)c(Br)c1 [XSD3-084]

IC50 [4]: 72 nM
SMILES: N/C(=N\S(=O)(=O)CC1CCCCC1)NCCCNc1nonc1/C(=N/O)Nc1ccc(F)c(Br)c1 [XSD3-088]

IC50 [4]: 67 nM
SMILES: N/C(=N\S(=O)(=O)CC1CCCCC1)NCCNc1nonc1/C(=N/O)Nc1ccc(F)c(Br)c1 [XSD3-089]

IC50 [4]: 399 nM
SMILES: N/C(=N\C(=O)Cc1ccccc1)NCCNc1nonc1/C(=N/O)Nc1ccc(F)c(Br)c1 [XSD3-092]

IC50 [4]: 56 nM
SMILES: N/C(=N\C(=O)Cc1ccc(Cl)cc1)NCCCNc1nonc1/C(=N/O)Nc1ccc(F)c(Br)c1 [XSD3-093-1]

IC50 [4]: 61 nM
SMILES: N/C(=N\C(=O)Cc1ccc(F)cc1)NCCCNc1nonc1/C(=N/O)Nc1ccc(F)c(Br)c1 [XSD3-093-2]

IC50 [4]: 76 nM
SMILES: COc1ccc(CC(=O)/N=C(\N)NCCCNc2nonc2/C(=N/O)Nc2ccc(F)c(Br)c2)cc1 [XSD3-093-3]

IC50 [4]: 44 nM
SMILES: N/C(=N\C(=O)Cc1ccccc1)NCCCNc1nonc1/C(=N/O)Nc1ccc(F)c(Br)c1 [XSD3-093]

From US20200325109A1, “IMINO-UREA DERIVATIVES” (Lunan Pharmaceutical Group Corporation, priority 2017, published 2020)
